Structures can show the parent of a compound that is named as a salt.
System: corneal reflex responses
Assay: Local anesthetic activity (corneal reflex responses)
Format: in vivo, guinea-pigs (male Hartley strain)
Settings: instilled into the cornea, guinea-pigs
Procedure: Solutions of the compounds were instilled into the cornea, and the corneal reflex responses were determined.

Compound | ED50 (concentration required to inhibit corneal reflex responses by 50%)
CCN(CC)CC(=O)Nc1c(C)cccc1C [Lidocaine, reference compound] | 0.82%
COC(=O)c1c(C)nc(C)c(C(=O)OC)c1-c1cc([N+](=O)[O-])ccc1OCCCCNC[C@H](O)COc1ccccc1.O=C(O)C(=O)O.O=C(O)C(=O)O [Example 1, Dimethyl 4-[2-[4-[[(S)-2-hydroxy-3-phenoxypropyl]amino]butoxy]-5-nitrophenyl]-2,6-dimethylpyridine-3,5dicarboxylate dioxalate] | 0.49%
COC(=O)c1c(C)nc(C)c(C(=O)OC)c1-c1cc([N+](=O)[O-])ccc1OCCCCNC[C@@H](O)COc1ccccc1 [Example 2, Dimethyl 4-[2-[4-[[(R)-2-hydroxy-3-phenoxypropyl]amino]butoxy]-5-nitrophenyl]-2,6-dimethylpyridine-3,5-dicarboxylate oxalate] | 0.32%
